System: rats
Format: in vivo, rat
Conditions: positive control; versus mean on baseline days
Method: The standard test in rat to measure anxiolytic effect (Geller conflict procedure) was designed by Geller and Seifter and modified by Pollard and Howard (Geller & Seifter, Psychophamracologia 1:482-492 (1960: Pollard & Howard, Psychopharmacology 62:117-121 (1979)). The anxiety-reducing effect of a KCNQ2/3 channel opener was measured using the Geller conflict procedure in rats. Rats are trained to press a lever to receive food pellets during daily 1 hour sessions. The sessions are divided into punished and unpunished phases. During the four, three-minute punished periods, a light signals that each lever press will produce both a pellet and a foot shock (punishment), which reduces lever pressing. The number of punished lever presses on test days (when test compound is administered) is compared to the mean on baseline days. […]

CNC1=Nc2ccc(Cl)cc2C(c2ccccc2)=[N+]([O-])C1 [chlordiazepoxide]
increase in punished lever pressing: > 50%

— US20020013349A1, “Methods for treating or preventing pain and anxiety” (priority 1999, published 2002)
